# Like-named read-outs stand apart in the source and are kept apart here.
# How the values were obtained:
# [1] = tested on: B-NHL Daudi cell line (wild type); experiment: Sensitization to CDDP-induced apoptosis, propidium iodide flow cytometry, Daudi; conditions: for apoptosis by combination treatment with CDDP: inhibitor 1-15 nM 1 h
# [2] = tested on: rituximab resistant Daudi RR1 cell line; experiment: Sensitization to CDDP-induced apoptosis, propidium iodide flow cytometry, Daudi RR1; type: cell-based; conditions: for potentiation of apoptosis in combination with CDDP: inhibitor 1 h
# Description: The rituximab resistant clone Daudi-RR1 was treated as in FIG. 1 above.
# FIG. 4A compares the effect of Salinosporamide A and bortezomib on CDDP-induced apoptosis in Daudi RR1 cells.
# FIG. 4B compares the effect of Salinosporamide A and DHMEQ on CDDP-induced apoptosis in Daudi RR1 cells.
# Rituximab (chimeric anti-CD20 monoclonal antibody) has been used in the treatment of Non-Hodgkin's Lymphoma alone or in combination with chemotherapy. The clinical response has been very encouraging; however, some patients are initially unresponsive or develop resistance following treatment. In order to investigate the mechanism of rituximab resistance we have developed in our laboratory rituximab resistant clones from B-NHL cell lines. We have selected certain clones for further analysis of the underlying mechanism of resistance. […] We investigated whether Salinosporamide A can sensitize Daudi RR1 to CDDP-induced apoptosis.
# Similar studies were performed as above in a) with Daudi RR1 cells.
# [3] = tested on: rituximab sensitive and rituximab resistant B-NHL tumor cells; experiment: Sensitization of B-NHL tumor cells to drug-induced apoptosis (conclusions); type: cell-based
# Description: 1) Salinosporamide A at very low concentrations (0.1-10 nM) sensitizes both rituximab sensitive and rituximab resistant B-NHL tumor cells to drug-induced apoptosis.
# [4] = tested on: Salinosporamide A resistant Daudi cells; experiment: Rituximab-mediated sensitization to Salinosporamide A-induced apoptosis, Daudi; type: cell-based; conditions: rituximab 20 ug/ml 1 h, then Salinosporamide A 10 nM 20 h
# [5] = tested on: DR5; experiment: DR5 expression by Western, Ramos; type: cell-based
# [6] = tested on: PTEN; experiment: PTEN expression by western; type: cell-based; conditions: FIG. 15
# Excerpt: Further, most resistant tumor cells express low levels of PTEN, and PTEN is a target for therapeutic intervention, as well as a biomarker
# [7] = tested on: HL60; conditions: drug sensitive HL60; equal doses as for HL60MX2; cited from earlier work
# [8] = tested on: DR5; experiment: DR5 expression, rituximab resistant Ramos RR1; type: cell-based; conditions: rituximab resistant Ramos cells RR1
# [9] = tested on: Raf-kinase inhibitor protein (RKIP); experiment: RKIP expression by western blot in Ramos cells; type: cell-based
# Description: (§1) Ramos cells were treated with 10 nM Salinosporamide A for various periods of time, and total cell lysates were examined for the expression of RKIP by western blot analysis. The expression of β-actin was used as a control.
# as §1, with “RKIP is a member of the phosphotidylethanolamine-binding protein (PEBP) family. Ramos” for “Ramos”
# [10] = tested on: DR5; experiment: DR5 surface expression by flow cytometry, Ramos; type: cell-based
# [11] = tested on: pleiotrophin (PTN); experiment: Pleiotrophin (PTN) expression; type: cell-based; conditions: 5 nM
# Excerpt: PTN has been reported to be elevated in tumor cells and in the circulation of cancer patients and is of prognostic significance. In addition, inhibition of PTN contributes to the sensitizing effect of Salinosporamide A. PTN is also a target for therapeutic intervention.
# [12] = tested on: B-NHL Ramos cell line; experiment: Sensitization to CDDP-induced apoptosis, propidium iodide flow cytometry, Ramos
# Description: The percent apoptotic cells was recorded. […] The treatment were performed in duplicates.
# [13] = tested on: YY1; experiment: YY1 expression by western blot in Ramos cells; type: cell-based; conditions: various concentrations, 24 hour exposure
# Excerpt: (§2) The expression of β-actin was used as a control.
# as §2
# [14] = tested on: 60 human tumor cell lines; conditions: NCI screening panels of 60 human tumor cell lines; cited from earlier work
# [15] = tested on: Bcl-xL; experiment: Bcl-xL expression by western; type: cell-based
# Description: Bcl-xL expression was assessed by western.
# [16] = tested on: HL60MX2; conditions: drug resistant HL60MX2; equal doses as for HL60; cited from earlier work
# [17] = tested on: Ramos B-NHL cells
# Description: Ramos cells were treated with rituximab (20 μg/ml) for 1 h and then treated with various concentrations of Salinosporamide A for an additional 20 h. The cells were then examined for apoptosis as described above in FIG. 1.
# Ramos cells were cultured untreated or treated with rituximab (20 μg/ml) for 18 h. Thereafter, the cells were treated with adriamycin (ADR) (5 μg/ml) or with different concentrations of Salinosporamide A (0.1, 1.0, 10 nM) overnight. The cell lines were examined for apoptosis by flow cytometry using the propidium iodide method for measuring DNA fragmentation.
# Ramos cells were treated with rituximab (20 ug/ml) (12 h to 18 h) and the cells were treated with various concentrations of Salinosporamide A (1-10 nM) for an additional 20 h and the cells were examined for apoptosis using the PI method detecting DNA fragmentation by flow cytometry.
# [18] = administered orally or intravenously; cited from earlier work
# [19] = tested on: TRAIL-resistant Ramos cells; experiment: Sensitization to TRAIL-induced apoptosis; type: cell-based
# [20] = tested on: multiple myeloma cells; conditions: multiple myeloma cells resistant to conventional and bortezomib therapies; cited from earlier work
# [21] = tested on: caspase 9; experiment: Caspase 9 activation by western (pro-caspase 9 level) in Ramos cells; type: cell-based
# Description: The activation of capsase 9 was assessed by western as the level of pro-caspase 9 was reduced following treatment.
# [22] = tested on: YY1; experiment: YY1 transcription by RT-PCR; type: cell-based
# Excerpt: as §2
# [23] = DHMEQ (μM) or Salinosporamide A (nM) 1 h, then CDDP 10 μg/ml 20 h
# [24] = Daudi wild type, then CDDP 10 μg/ml 20 h
# [25] = inhibitor 1 h, then CDDP 15 μg/ml 20 h
molecule,measurement,setting,value
"O=C(NC1=CC(=O)[C@H]2O[C@H]2[C@H]1O)c1ccccc1O [DHMEQ, reference compound]",higher concentration used with DHMEQ as compared to Salinosporamide A for similar sensitization,"[1]; Daudi wild type, CDDP 10 μg/ml","4,000 fold"
same,sensitization to CDDP-induced apoptosis,"[1]; Daudi, DHMEQ 1-65 μM 1 h, then CDDP 10 μg/ml 20 h",can sensitize Daudi cells to CDDP-induced apoptosis
same,higher concentration used with DHMEQ as compared to Salinosporamide A for similar sensitization,[2]; CDDP 10 μg/ml,"4,000 fold"
same,sensitization to CDDP-induced apoptosis,[2]; [23],sensitize cells to CDDP-induced apoptosis
same,increase in concentration required for sensitization as compared to Salinosporamide A,"[3]; B-NHL tumor cells, drug-induced apoptosis","4,000 fold"
C[C@@]12OC(=O)[C@]1([C@@H](O)[C@@H]1C=CCCC1)NC(=O)[C@@H]2CCCl [Salinosporamide A],apoptosis by combination of rituximab and Salinosporamide A,[4],significant apoptosis and synergy was achieved
same,DR5 expression,[5],upregulates DR5 expression
same,PTEN expression,[6]; Salinosporamide A alone,induces the expression
same,PTEN expression in combination with rituximab,[6]; combination with rituximab,more was expressed
same,cytotoxicity,[7],cytotoxic
same,DR5 expression,[8],upregulates DR5 expression
same,levels of RKIP protein,"[9]; Ramos, 10 nM, 15 minute exposure",increase in the levels of RKIP protein
same,RKIP expression,"[9]; Salinosporamide A alone, FIG. 15",induces the expression
same,RKIP expression in combination with rituximab,"[9]; combination with rituximab, FIG. 15",more was expressed
same,DR5 surface expression,[10],upregulated DR5 surface expression
same,apoptosis by combination treatment with CDDP,[1]; [24],significant apoptosis by the combination treatment at all concentrations of inhibitors used
same,cytotoxicity of combination treatment with CDDP,"[1]; Daudi, treated as Ramos, function of concentration",significant cytotoxicity was observed
same,pleiotrophin (PTN) expression,[11],inhibits the growth factor pleiotrophin (PTN) expression significantly
same,cytotoxicity of Salinosporamide A treatment alone,"[12]; 1 and 10 nM, no CDDP",modest cytotoxicity
same,concentration at which potentiation of cytotoxicity was mostly observed (significant synergistic cytotoxicity),[12]; [25],0.1 nM
same,cytotoxicity of combination treatment with CDDP,[12]; [25],significant potentiation of cytotoxicity
same,levels of YY1 protein,[13],decrease in the levels of YY1 protein
same,mean growth inhibition,[14],less than 10 nM
same,concentration inhibiting Bcl-xL expression,[15],< 2.5 nM
same,cytotoxicity,[16],cytotoxic
same,cytotoxic effects of sole treatment,"[17]; Ramos, no rituximab, 0.1, 1.0, 10 nM overnight",no detectable cytotoxic effects
same,apoptosis by combination treatment with rituximab,"[17]; Ramos, rituximab 20 ug/ml 12-18 h, then Salinosporamide A 1-10 nM 20 h",significant apoptosis
same,rituximab sensitization to Salinosporamide A-induced apoptosis compared with ADR,"[17]; Ramos, rituximab 20 μg/ml 18 h, ADR 5 μg/ml",greater than that achieved with ADR
same,apoptosis in rituximab pre-treated tumor cells,"[17]; Ramos, rituximab 20 μg/ml 18 h, Salinosporamide A 1 nM",significant apoptosis
same,apoptosis in rituximab pre-treated tumor cells,"[17]; Ramos, rituximab 20 μg/ml 18 h, Salinosporamide A 10 nM",less effective due to cell loss
same,concentration at which synergistic activity with rituximab was detected,"[17]; Ramos, rituximab 20 ug/ml pre-treatment",>= 1 nM
same,rituximab sensitization to Salinosporamide A-induced apoptosis compared with CDDP,"[17]; rituximab-mediated chemosensitization, FIG. 6",higher level than CDDP
same,anti-tumor effects in vivo,[18],exerted anti-tumor effects
same,sensitization to TRAIL-induced apoptosis,[19],sensitizes TRAIL-resistant Ramos cells to TRAIL-induced apoptosis
same,sensitization to CDDP-induced apoptosis,[2]; [23],sensitize cells to CDDP-induced apoptosis
same,potentiation of apoptosis in combination with CDDP,[2]; then CDDP 10 μg/ml 20 h,significant potentiation of apoptosis
same,sensitization to CDDP-induced apoptosis,"[2]; treated as Ramos, function of concentration",significantly sensitized
same,induction of apoptosis,[20],induces apoptosis
same,concentrations that sensitize to drug-induced apoptosis,[3]; rituximab sensitive and rituximab resistant B-NHL tumor cells,0.1 to 10 nM
same,caspase 9 activation,[21]; Salinosporamide A alone,activates caspase 9
same,caspase 9 activation in combination with CDDP,[21]; combination with CDDP,more caspase 9 was activated
same,YY1 transcription,[22],inhibits YY1 transcription
"CC(C)C[C@H](NC(=O)[C@H](Cc1ccccc1)NC(=O)c1cnccn1)B(O)O [bortezomib, reference compound]",apoptosis by combination treatment with CDDP,[1]; [24],significant apoptosis by the combination treatment at all concentrations of inhibitors used
same,potentiation of apoptosis in combination with CDDP,[2]; then CDDP 10 μg/ml 20 h,significant potentiation of apoptosis
rituximab [reference compound],sensitization of tumor cells to Salinosporamide A-induced apoptosis,[17]; rituximab 20 ug/ml pre-treatment,can sensitize drug-resistant tumor cells to Salinosporamide A induced apoptosis

# From patent publication US20090148445A1, “METHODS OF SENSITIZING CANCER TO THERAPY-INDUCED CYTOTOXICITY” (The Regents of the University of California, priority 2005, published 2009)
